Consider one compound from US20030203963A1, “Antimicrobial agent” (priority 2001, published 2003).

The subject of test [1] is S. carisbergensis CRA6413. The experiment in a line: Bioscreen growth inhibition test. It is filed as cell-based, Saccharomyces carlsbergensis. Conditions: APP 213, BS010420, 72 h/25° C. The protocol:
For broth cultures and Bioscreen testing most bacteria were grown in Brain Heart Infusion (BHI, Oxoid, pH 7.4). Lactobacillus sake A10 was grown in de Man, Rogosa, Sharpe medium ([…], Oxoid). Yeasts were grown in Sabouraud Liquid medium (SLM, Oxoid). Most bacteria were cultured at 30° C. Lactic acid bacteria were grown on solid medium in enriched CO2 atmosphere. Clostridium species were grown in Reinforced Clostridial Medium (RCM) at 37° C. anaerobically. Brochothrix thermosphacta fungi and yeasts were grown at 25° C. Fungi were cultured on Malt Extract Agar (MEA, Oxoid).
An automated Microbiology Reader Bioscreen C was used to measure growth curves of the strains in the presence and absence of APP. The Bioscreen C measures the development of turbidity (i.e. growth) kinetically by vertical photometry in 200 wells of a honeycomb microtitre plate, simultaneously. The system consists of a Bioscreen C analyser, which is an incubator and measurement unit, integrated with a PC, software (BioLink v 5.30), printer and a ‘Honeycomb 2’ cuvette multiwell plate. Growth curve data can be analysed within the BioLink software or exported to programs such as Excel.
Broth culture media were dispensed in 270 μl volumes into the wells as directed. […] (depending on the micro-organism under investigation) with readings taken every 20 minutes after the trays were shaken. […]

A further test has as its system L. monocytogenes S23. The experiment in a line: In vitro cidal experiment. It is filed as cell-based, Listeria monocytogenes. To be noted: ambient temperature. How it is done: 100 μl of SDW (sterile deionised water) or APP sample E002012 was added to 890 μl 10 mM HEPES buffer (pH 7). […] After this time the bacteria were enumerated by viable count. The concentration of the APP sample was 24.7 μg/ml.

The subject of a further test is Salmonella S19. As to the kind of experiment: Chicken soup trial at 8° C. To be noted: 500-1000 ppm; chicken soup at 8° C., TCSM010521, APP215. It is filed as cell-based, Salmonella sp. The text has this:
A local supermarket brand of cream of chicken soup was used as a model food system. 600 g packs were purchased from the local supermarket. This was a ‘fresh home-made type’ of soup that was stored in the chill cabinet, with a short shelf life. It was chosen because it is a rich, nutritious food system containing a range of food components including meat, dairy and vegetable.
Ingredients were labelled as: chicken stock (water, duck fat, chicken, salt, flavourings, yeast extracts, pork gelatine, glucose syrup, vegetable concentrate, milk protein, sugar, malto-dextrin, vegetable oil, citric acid, lactose, chicken fat), ilk, chicken (9%), cream (8%), onion, potato, vegetable oil, modified maize starch, wheat flour, lemon juice, salt, white pepper. pH 5.912. Protein: 3.3%; carbohydrate: 4.7%; fat: 7.2%; fibre: 0.2%; sodium: 0.1%
For the test the soup was mixed 2:1 in water (to facilitate sampling and mixing) and sterilised by autoclaving at 121° C. for 15 minutes. For each experiment the pH of the soup was recorded; this was between pH 5.79-5.88.
For TCS010521/8 (incubated at 8° C.), samples were prepared in 27.8 g quantities. 1.5 g of an APP stock solution was added, and the tests inoculated with 0.3 ml of a suitably diluted cell or spore suspension to give a final inoculum of ca. 10^3 cfu/g. APP was tested at 0, 500 and 1000 ppm, and batch number APP20010213 (at 169 mg/ml) was used. […]

In another test the test system is Salm Typhimurium S29. As to the kind of experiment: Test in cooked minced beef slurry. It is filed as cell-based, Salmonella Typhimurium. The protocol: 1 kg of minced beef, purchased from the local butcher, was mixed with 1 litre of BHI. 200 g portion of this meat slurry was autoclaved. When the meat had cooled, the pH was recorded (pH 6.24), and each pot was inoculated with 2.0 ml of 10^5 spores or cells and the meat re-mixed thoroughly. Each inoculated 200 g pot was distributed as 3×50 g portions. To each pot 1 ml of SDW, 5% or 10% APP (Batch No. APP20010215) was added, and the meat was again mixed thoroughly. An initial viable count was performed, the meat was incubated at 8° C. and sampled twice weekly. The pH of the cooked minced beef slurry was 6.24.

In the next test the test system is L. monocytogenes 272. The experiment in a line: Test in cooked minced chicken slurry. It is filed as cell-based, Listeria monocytogenes. The protocol:
1 kg of minced chicken (mainly lean meat) was purchased from the local butcher. This was mixed with 1 litre of BHI, mixed and dispensed as 100 g samples prior to autoclaving. When still warm, the meat was re-mixed thoroughly. When cooked, the meat was inoculated with 1 ml of 10^5 spores or cells (from an overnight broth), and re-mixed. The samples were then divided into 3×25 g portions, to which 0.5 ml of filter-sterilised APP20010215 was added (as 5% or 10% stock solutions) or water. An initial viable count was taken, and the samples then incubated at 8° C. and tested twice weekly. The pH of the chicken slurry was 6.42.

The subject of a further test is TAVC. As to the kind of experiment: Uninoculated test in raw meat. It is filed as cell-based. To be noted: 2000 ppm APP; for Viable counts: raw meat at 8° C. How it is done: […] of raw minced beef was purchased from the local butcher. 10 g of either a 2% (20,000 ppm) stock solution of APP2001213 or water was added, and the meat mixed thoroughly. Initial counts were carried out, and then the meat was incubated at 8° C. and sampled for 3 consecutive days. The pH of the raw meat was 5.3.

The conditions of test [2]: tests disclosed by Baute et al., Phytochemistry 33 (1993); cited from earlier work.

Regarding `O=C1CC(CO)OC=C1O` (stereo not drawn) [APP, Ascopyrone P], the “APP level causing significant inhibition” value in test [1] was “Enhanced growth”. Further, in test [1], the “APP level causing total inhibition” value was greater than 4000. Besides, the “Viable count after 2 h incubation” value in the test on L. monocytogenes S23 (24.7 μg/ml APP E002012, 10 mM HEPES buffer (pH 7)) is listed as 1.3 × 10^7. Further, the “Listeria counts after 2 h incubation” value in the test on L. monocytogenes S23 (24.7 μg/ml APP, buffer) is reported as “remained steady”. The “Total inhibition for” value is recorded as “Total inhibition by 500-1000 ppm for 22 d” with Salmonella S19 and “Total inhibition by 2000 ppm for >44 d” with Salm Typhimurium S29 (2000 ppm, minced beef slurry at 8° C., pH 6.24, TCM010619). The “Total inhibition (effect on growth of target organism by 2000 ppm APP)” value in the test with Salm Typhimurium S29 (Cooked minced beef slurry at 8° C. pH 6.24) is reported as “S. Typhimurium”. Also, the Effect on growth result in the test on L. monocytogenes 272 (2000 ppm, minced chicken slurry at 8° C., pH 6.42, TCC010704) is recorded as “Slight inhibition by 2000 ppm only”. Also, in the test with L. monocytogenes 272 (Cooked minced chicken slurry at 8° C. pH 6.42, organism printed in brackets), the “No inhibition (effect on growth of target organism by 2000 ppm APP)” value is given as “(L. monocytogenes)”. Also, the Viable counts in the test on TAVC (day 0, TRM010521) was 9.3 × 10^6 cfu/g; in the test on TAVC (day 1, TRM010521), 2.2 × 10^8 cfu/g; in the test on TAVC (day 2, TRM010521) it was 1.5 × 10^8 cfu/g; in the test on TAVC (day 3, TRM010521), 5.0 × 10^8 cfu/g. Moreover, the “Counts in control and APP samples” value in the test on TAVC (uninoculated raw meat at 8° C., pH 5.3) is reported as “identical”. Besides, the “Function as an antibiotic” value in test [2] was “did not function satisfactorily as an antibiotic”.
